Reference: US5608143A, “External regulation of gene expression” (E. I. Du Pont de Nemours and Company, priority 1994, dated 1997)

What was measured:
[1] = test system: 2-2 corn promoter; assay: Transient GUS expression assay, 2-2 corn promoter/GUS constructions in transformed rice protoplasts
Procedure: Cell counts were made with a Fuchs-Rosenthal hemocytometer.
Protoplasts were transformed as follows: Multiple aliquots of the protoplasts (5-10×10^6 cells) were centrifuged gently (80 g) for 4 minutes in sterile tubes. The supernatant was discarded and the cells were resuspended in 1 ml of Kern's F, pH 5.8 buffer. Ten μg of transforming DNA in less than 15 μl of TE pH 8.0 were added per million protoplasts. […] The resulting protoplast cell suspension was mixed gently and incubated at room temperature for 20 minutes. A volume of 13-15 mls of Kren's F, pH 7.0 solution was then added to dilute out PEG.
The transformed protoplasts were collected by centrifugation at 80 g for 4 minutes. The supernatant was discarded and the protoplasts were resuspended in 2.0 ml of Kren's F, pH 5.8. The protoplast sample was divided into two 1 ml aliquots. One ml of protoplast medium was added to one aliquot of the protoplasts, while 1 ml of the protoplast medium containing 100 μg/ml N-(aminocarbonyl)-2-chlorobenzenesulfonamide was added to the other aliquot.
The inducibility of the recombinant GUS genes whose expression were controlled by 2-1 corn gene promoter and downstream sequences were determined by measuring the level of the β-glucuronidase enzyme activity in protoplasts cultured in the presence and absence of N-(aminocarbonyl)-2-chlorobenzenesulfonamide. GUS activity was assayed by harvesting protoplasts in a clinical centrifuge at 80 g for 5 minutes, and resuspending them in 1.0 ml 1× GUS lysis buffer (50 mM sodium phosphate pH 7.0, 10 mM β-mercaptoethanol, 10 mM EDTA, 0.1% Triton X-100, 0.1% N-lauroylsarcosine). The suspension containing the lysed protoplasts was vortexed and spun at top speed in a table top clinical centrifuge for 5 minutes. Eighteen μl of the supernatant was transferred to a tube containing 782 μl of water for determination of protein content in the protoplast lysate. […] A protein concentration curve was prepared using bovine serum albumin as a standard. The protein content, so determined, was multiplied by a factor of 7.2 to give the protein content in 130 μl of extract (the amount of extract present in a single time point of the assay-see below). Of the remaining supernatant,585 μl was transferred to a fresh tube.
The substrate for the GUS assay was 4-methyl-umbelliferyl-β-D-glucuronide (4-MUG) and was obtained from Sigma Chemical Co., St. Louis Mo. […] 4-MUG was prepared as a 10 mM stock in 1× GUS buffer. Sixty-five μl of a pre-warmed (37° C.) 10 mM 4-MUG stock was added to the pre-warmed 585 μl protoplast extract, and a 100 μl aliquot of the resulting mixture was transferred to a well of a 24-well microtiter dish containing 0.9 ml of 0.2M Na2 CO3. Similar aliquots are removed at 1 hour, 2 hour, and 3 hours. The 4-MU flourescence of individual samples, from each time point was determined quantitatively using an excitation wavelength of 365 nm and measuring flourescence at an emission wavelength of 455 nm. […] GUS activity in the transient assay was expressed as picomoles of 4-MU produced per μg protein per hour.

[2] = test system: tobacco leaf pieces (callus formation); assay: Callus formation of leaf pieces from kanamycin-resistant tobacco shoots on selective medium; assay type: cell-based; settings: sixteen kanamycin-resistant shoots, three weeks; 10 ppb chlorsulfuron and/or 100 ppm D5293
Source text: Callus formation was scored as plus or minus after three weeks of growth.

[3] = test system: metabolism of chlorsulfuron and metsulfuron methyl; settings: wheat and corn following application of the antidote; cited from earlier work
[4] = test system: 2-1 gene (In 2-1 mRNA); assay: RNA slot blot / Northern analysis of 2-1 mRNA in roots of chemically treated corn; assay type: in vivo, corn (Missouri 17); settings: six hours, corn roots; for In 2-1: net amount of radioactivity hybridizing to treated RNA after subtraction of untreated RNA: 200 mg/l hydroponic, slot blot 2 μg total RNA
Procedure: Missouri 17 corn seeds were surface sterilized by soaking them in a solution of 10% commercial bleach and 0.1% sodium dodecylsulfate (SDS) for 30 minutes. Seeds were then rinsed thoroughly in a buchner funnel with sterile distilled water and prepared for germination by placing them onto 5-6 layers of moist sterile paper towels in a 8"×10" glass baking tray. The tray was covered with aluminum foil and placed in the dark in a 30° C. incubator for 48-72 hours to allow the seeds to germinate. After germination, seedlings were grown hydroponically in an apparatus consisting of a sheet of 8 mesh stainless steel wire gauze suspended over the top of a 2 liter glass beaker filled with sterile half strength Hoagland's solution (referred to 0.5× Hoagland's) so that the roots extended through the mesh and into the media. The hydroponic apparatus was aerated by introducing humidified air into the bottom of the beaker with a gas diffusing stone commonly used in tropical fish aquariums. The apparatus was covered with a loose-fitting sheet of aluminum foil and placed in a reach-in growth chamber illuminated by both fluorescent and incandescent lamps at an intensity of 4400 lux. Seedlings were grown at 28° C., 75% relative humidity using a 16 hour day/8 hour night cycle. After two days, the foil was removed and plants were grown for an additional 5-6 days. Any 0.5× Hoagland's lost to evaporation was replenished every 2-3 days. […] Plants were then allowed to grow for six additional hours prior to harvest.
A nitrocellulose filter (Schlicher and Schull BA-85) was wetted by soaking it twice for 10 minutes in water, followed by a 10 minute soak in 1M ammonium acetate. The filter was then placed into a Slot Blot apparatus (Schleicher and Schuell, Inc., Keene, N.H. 03431, CAT #SRC072/0). […] Forty pl of denaturation buffer (30% formaldehyde, 100 mM sodium phosphate pH 6.8) were added to each sample and all samples were then incubated at 65° C. for 20-30 minutes and quick-cooled in an ice slurry for 5 minutes. Thirty μl of 4M ammonium acetate were added to each sample and the 150 μl samples were added to slots in the blotting cell with the aid of a 10-15 mm Hg vacuum. The filter was removed from the blotting cell, air dried and baked for 2 hours at 70° C. in vacuo.
The filter was cut into six pieces such that each piece had one slot cox.raining RNA from each of the three treatments described above. One of the filter pieces was incubated with 10 ml of prehybridization buffer (50% deienized formamide, 5× SSC, 5× Denhardt's, 100 μg/ml denatured calf thymus DNA, 20 μg/ml homopoly(A), 40 mM sodium phosphate pH 6.8 and 0.5% BSA) in a heat-sealable bag for 6 hours at 42° C. with occasional mixing. The filter piece was then hybridized with nick-translated pIn 2-1. This was performed by discarding the prehybridization solution from the bag and replacing it with 2.5 ml of hybridization buffer (50% deionized formamide, 5× SSC, 100 μg/ml denatured calf thymus DNA, 20 μg/ml homopoly(A) and 40 mM sodium phosphate, pH 6.8) containing 1.25×10^7 cpm of nick translated 2-1 plasmid described above. Nick-translated plasmid was denatured by boiling for 10 minutes followed by quick-cooling on ice. The filter was then hybridized overnight at 42° C. with occasional mixing.

[5] = test system: petunia P6.1 gene (P6 RNA); assay: Northern / RNAse protection analysis of P6 RNA in roots of chemically treated petunia; assay type: in vivo, Petunia (Mitchell); settings: hydroponic 100 mg/l, roots
Source text: Petunia (Mitchell) seeds were germinated in soil and allowed to grow for one month under standard greenhouse conditions. Plants were transferred to a hydroponic growth apparatus in a greenhouse using foam plugs to support the plants. These plugs were then placed in holes in a wooden bDard and placed over a stainless steel sink containing 0.5× Hoagland's solution. The solution was aerated using standard aquarium pumps, and was changed weekly. After one month of hydroponic growth, plants were transferred to stainless steel trays containing either fresh 0.5 × Hoagland's or 0.5× Hoagland's containing 0.2 g per liter of N-(aminocarbonyl)-2-chlorobenzenesulfonamide. Root tissue was harvested after six hours of treatment.
Ten μg (2 mg/ml) of total RNA from control and N-(aminocarbonyl)-2-chlorobenzenesulfonamide-treated roots was denatured by adding 10 μl of deionized formamide, 3.5 μl formaldehyde, 4 μl 5× MEN buffer (40 mM MOPS pH 7.0, 10 mM sodium acetate, 1 mM EDTA) and incubating at 65° C. for 15 minutes. […] RNA was stained in the presence of 10 mM sodium phosphate pH 6.8 and 1 μg/ml acridine orange for 30 minutes. The gel was then desrained in 10 mM sodium phosphate for 30 minutes, and the RNA was visualized on a UV transilluminator, photographed, and blotted to nitrocellulose (Millipore HAWP). To do this, Whatman 3MM paper was placed below the gel on a glass plate so that the ends of the paper extended into 20× SSC. A sheet of nitroccllulose which had been prewet with 2× SSC was placed on top of the gel followed by a layer of Whatman 3MM, then a stack of paper towels 10 cm high. A glass plate and weight were then placed on top of the stack. Following an overnight transfer, the filter was rinsed briefly in 2× SSC, air dried, and baked in vacuo for 2 hours at 80° C.
The filters were prehybridized for 5 hours in plastic dishes at 42° C. using the hybridization buffer described earlier. Plasmid p6.1 was nick-translated by combining 1 μg of DNA with 5 μl 10× buffer (0.5M Tris-HCl pH 8.0, 0.1M MgSO4, 10 mM DTT and 0.5 mg/ml BSA), 5 μl 0.3 uM d(AGT)TP, 5 μl ^32 P-dCTP (Amersham, 10 mCi/ml, 400 Ci/mmole), 1 μl DNA polymerase 1 (5 U/μl, Boehringer-Mannheim), and 1 μl of 0.1 μg/ml DNAse 1 in a total volume of 50 μl. […] The reaction was then incubated for 5 minutes at 70° C., and labelled DNA was separated from unincorporated nucleotides by Sephadex® G-50 column chromatography. The prehybridization solution was removed from the bag and replaced with hybridization solution containing nick-translated plasmid P6.1 DNA at a concentration of 1×10^6 cpm/ml. […] Filters were washed twice with 2× SSC, 0.1% SDS at 42° C. followed by two washes in 0.1× SSC, 0.1%SDS at 60° C.
RNA probes complementary to the coding strands in both P644 and P645 were synthesized in the following reaction: 50 uCi ^32 P-UTP, 2 μl 5× transcription buffer (200 mM Tris-HCl pH 7.5, 30 mM MgCl2, 10 mM spermidine), 0.5 μl 0.2M DTT, and 0.5 μl of either T3 polymerase (plasmid P645) or T7 polymerase (plasmid P644). Incubation was carried out at 40° C. for 1 hour. The DNA template was hydrolyzed for 15 minutes at 37° C. by addition of 30 μl H2 O, 1 μl RNAsin, 2,5 μl vanadyl ribonucleoside complex, 6 μl 5× transcription buffer and 1 μl DNAse 1 (1 mg/ml) to the transcription reaction. The reaction was extracted with an equal volume of phenol:chloroform (1:1 v/v). The RNA was precipitated once with ethanol in the presence of ammonium acetate and once with ethanol in the presence of sodium acetate. The pellets were dissolved in 25 μl of TE. Ten μg of RNA from untreated and N-(aminocarbonyl)-2-chlorobenzenesulfonamide-treated plants were mixed with 1×10^6 cpm of each of the two probes in 30 ul of hybridization buffer (40 mM PIPES pH 6.7, 0.4M NaCl, 1 mM EDTA). […] Single stranded RNA was selectively digested by adding 300 μl RNAse A and RNAse T1 to 40 μg/ml and 2 μg/ml respectively in 10 mM Tris-HCl pH 7.5, 5 mM EDTA, and 300 mM NaCl.

[6] = test system: 2-2 gene (In 2-2 mRNA); assay: RNA slot blot / Northern analysis of 2-2 mRNA in roots of chemically treated corn; assay type: in vivo, corn (Missouri 17); settings: 200 mg/l hydroponic, six hours, corn roots, slot blot 2 μg total RNA
Procedure: Details of the techniques used to perform the procedures used in Example 2 are presented in Example 1. The cDNA library made using poly(A)^+ RNA from the roots of N-(aminocarbonyl)-2-chlorobenzenesulfonamide-treated Missouri 17 corn plants (described in Example 1) was analyzed for additional cDNA clones representing mRNAs induced by substituted benzenesulfonamides. […] This colony was designated In 2-2.
A small scale plasmid preparation was performed on the plasmid contained in colony In 2-2. This plasmid was designated pIn 2-2. An aliquot of pIn 2-2 was nick translated as described earlier. A slot blot containing total RNA from N-(aminocarbonyl)-2-chlorobenzenesulfonamide-treated and untreated roots was prepared and probed with nick-translated pIn 2-2 as described for pIn 2-1 in Example 1.
The pIn 2-2 small scale plasmid preparation was digested to completion with Pst I and analyzed by agarose gel electrophoresis. The cDNA insert of the plasmid was excised by Pst I as a single 1200 bp fragment. Nick-translatedpIn 2-2 was used to probe a Northern blot of RNA from both untreated and N-(aminocarbonyl)-2-chlorobenzenesulfonamide-treated roots.
(§1) The ability at various substituted benzenesulfonamides and related compound to induce the expression of the 2-1, 2-2, and 5-2 genes of Missouri 17 corn was evaluated. Corn seeds were germinated and grown hydroponically in 2 liter beakers as described in Example 1. On the tenth day, plants were transferred into fresh 0.5× Hoagland's solution containing the chemical to be tested. Root tissue was harvested from the plants after six hours of chemical treatment, quick-frozen by immersion in liquid N2, and stored at -80° C. until analyzed.
(§2) Details of the RNA isolation and slot blot analysis procedures are presented in Example 1. Total RNA was prepared from the root tissue of plants that had been treated with various chemicals using the previously described guanidine thiocyanate procedure. Replicate blots, each consisting of 2 μg of total RNA from tissues treated with each of the chemicals shown in tables 8 and 9, were prepared on nitrocellulose membranes using a Minifold II® Slot-blotter (Schleicher & Schuell) following the manufacturer's recommeneded procedure. Replicate blots were prehybridized and hybridized with cDNA probes made by nick translation of the purified cDNA inserts from plasmid pIn 2-1, pIn 2-2-3, and pIn 5-2. Slot blots were washed as described in Example 1 and exposed to Kodak X-OMAT XAR-5 film for 24 hours at -80° C. using a single Du Pont Lightning Plus intensifying screen. Film was developed using a Kodak X-OMAT film processor. The abililty of a chemical to induce the mRNA encoded by the three inducible genes was evaluated in one of two ways. Qualitative evaluation was performed by direct visual comparison of the autoradiographic signal intensities on the films for the hybridization of each probe to the different RNA samples. Quantitative evaluation was performed by cutting each slot containing hybridized RNA from the blot, immersing it in 2 ml of Du Pont ECONOFLUOR® scintillation cocktail and counting the radioactivity in each slot in a scintillation counter. The net amount of radioactivity hybridizing to N-(aminocarbonyl)-2-chlorobenzenesulfonamide-treated RNA after subtraction of radioactivity hybridizing to untreated RNA is presented in Table 15.

[7] = test system: 5-2 gene (In 5-2 mRNA); assay: RNA slot blot / Northern analysis of 5-2 mRNA in roots of chemically treated corn; assay type: in vivo, corn (Missouri 17); settings: 200 mg/l hydroponic, six hours, corn roots, slot blot 2 μg total RNA
Procedure: Details of the techniques used to perform Example 3 are presented in Example 1. The cDNA library made from poly (A)+ RNA from the roots of N-(aminocarbonyl)-2-chlorobenzenesulfonamide-treated Missouri 17 corn plants described in Example 1 was analyzed for additional cDNA clones representing N-(aminocarbonyl)-2-chlorobenzenesulfonamide-induced mRNAs. […] This colony was designated In 5-2.
A small scale plasmid preparation was performed on an overnight culture of In 5-2 and an aliquot of the plasmid, designated pIn 5-2, was nick-translated as described earlier. Slot blot analysis was performed as described in Example 1 using nick-translated In 5-2 plasmid. […] This plasmid was designated pIn 5-2.
An aliquot of the small scale plasmid preparation of pIn 5-2 was digested to completion with PSt I and analyzed by agarose gel electrophoresis. The cDNA insert of the plasmid was excised as a single 420 bp Pst I fragment. Plasmid pin 5-2 was nick-translated and used to probe a Northern blot of RNA from both untreated and N-(aminocarbonyl)-2-chlorobenzenesulfonamide-treated roots.
as §1, §2

[8] = rice protoplasts transformed with pTDS133, compound at 100 μg/l

Compound | AVE. INDUCTION [1, 8] | Assay 3 (induction of GUS activity) [1, 8] | other results
COc1nc(C)nc(NC(=O)NS(=O)(=O)c2ccccc2Cl)n1 [Chlorsulfuron, chlorsulfuron, reference compound] | – | – | Callus formation (shoots whose leaf pieces formed callus / shoots tested) [2]: 12/16
CN(C)C(=O)c1cccnc1S(=O)(=O)NC(N)=O [Compound 18] | 1.6 | 1.6 | –
CCCCNC(=O)NS(=O)(=O)c1cccc(Cl)c1S(=O)(=O)N(C)C [Compound 2 (Table 15), N'-[2-(n-butylaminocarbonyl)]-6-chloro-N,N-dimethyl-1,2-benzene-disulfonamide] | – | – | ability to induce GUS activity in transformed protoplasts (rank) ([1]; rice protoplasts transformed with pTDS133): most active
N#CCON=C(C#N)c1ccccc1 [cyometrinil] | – | – | increases in the metabolism rates of chlorsulfuron and metsulfuron methyl [3]: 2 to 5 fold
NS(=O)(=O)c1ccccc1Cl [2-chlorobenzenesulfonamide, reference compound] | – | – | hybridization of pIn 2-1 to root RNA (RNA slot blot) ([4]; hydroponic 0.2 g/liter): extremely weakly, if at all
C=CCN(CC=C)C(=O)C(Cl)Cl [N,N-diallyl-2,2-dichloroacetamide] | – | – | increases in the metabolism rates of chlorsulfuron and metsulfuron methyl [3]: 2 to 5 fold
O=C(O)c1ccccc1O [Salicylic acid, reference compound] | – | – | time at which P6 RNA level declined to that seen in untreated plants [5]: ≤ 6 h; time at which maximal levels of P6 RNA were seen ([5]; sampled at 2, 4, 6 and 22 hours): ≤ 2 h
CCCCNC(=O)NS(=O)(=O)c1ccccc1P(=O)(OCC)OCC [Compound 1] | – | – | In 2-1: net amount of radioactivity hybridizing to treated RNA after subtraction of untreated RNA [4]: 204; In 2-2: net amount of radioactivity hybridizing to treated RNA after subtraction of untreated RNA [6]: 332; In 5-2: net amount of radioactivity hybridizing to treated RNA after subtraction of untreated RNA [7]: 47
O=C1OC(=O)c2cccc3cccc1c23 [napthalic anhydride] | – | – | increases in the metabolism rates of chlorsulfuron and metsulfuron methyl [3]: 2 to 5 fold

The next lines start with results.

AVE. INDUCTION [1, 8] | Assay 3 (induction of GUS activity) [1, 8] | Compound | other results
16.6 | 16.6 | CNC(=O)NS(=O)(=O)c1c(C)cccc1OC [Compound 17] | –
5.2 | 5.2 | CCCCNC(=O)NS(=O)(=O)c1cnccc1Cl [Compound 19] | –
24.2 | 24.2 | CC(C)(C)NC(=O)NS(=O)(=O)c1ccc(Cl)nc1Cl [Compound 21] | –
27.3 | 27.3 | CCCCNC(=O)NS(=O)(=O)c1ccoc1C(=O)OC [Compound 14] | –
24 | 24.1 | CCCCNC(=O)NS(=O)(=O)c1cccc(C)c1S(=O)(=O)CCC [Compound 15] | –
38.6 | 38.6 | CCCNC(=O)NS(=O)(=O)c1ccccn1 [Compound 20] | –
7.75 | 43 | NC(=O)NS(=O)(=O)c1ccccc1Cl [Compound 5] | In 2-1: net amount of radioactivity hybridizing to treated RNA after subtraction of untreated RNA [4]: 296; In 2-2: net amount of radioactivity hybridizing to treated RNA after subtraction of untreated RNA [6]: 136; In 5-2: net amount of radioactivity hybridizing to treated RNA after subtraction of untreated RNA [7]: 59; Assay 1 (induction of GUS activity) [1, 8]: 8.7; Assay 2 (induction of GUS activity) [1, 8]: 6.8
30 | 30.2 | CCCCNC(=O)NS(=O)(=O)c1ccccc1S(=O)(=O)N(C)C(F)(F)C(F)F [Compound 16] | –
